Results on four compounds are retold here after US20100317577A1, “Methods and Compositions for Inhibiting Cell Death or Enhacing Cell Proliferation” (Department of Health and Human Services, priority 2005, published 2010).

For data set [1], the system named is caspase 3/7. The experiment in a line: Caspase 3/7 activity in HL-60 cells with staurosporine. Particulars: HL-60, staurosporine. In kind it is cell-based, human.
Data set [2] is described as follows: Protease sensitivity during expression in Pichia pastoris. Particulars: high concentrations of protease inhibitors.
Method: In Pichia, GM-CSF-Bcl-XL was expressed intracellularly. The expression was monitored by Western blot.
The cells were harvested by centrifugation at 5,000 g, and, washed with binding buffer (5 mM imidazole, 20 mM Tris/Cl pH 7.9, 0.5M NaCl) containing 2 protease inhibitor tablets, COMPLETE PROTEASE INHIBITOR COCKTAIL EDTA-free (Roche Diagnostics, Indianapolis, Ind.),/50 ml of buffer. Cells were lysed by adding 100 g of acid washed glass beads (0.5 g of beads/ml of initial culture) with 1 cycle of 5 minutes, frequency 30 Hz, in a mixer mill (Retsch MM200, Haan, Del.). The cellular debris were eliminated by centrifugation at 18,000 g, 5 minutes at 4° C.
In data set [3] the test system is caspase 3/7. Description: Caspase 3/7 activity in monocytes treated with cytotoxic drugs. In kind it is cell-based, human.
The subject of data set [4] is Peripheral blood mononuclear cell (PBMC). In kind it is cell-based, human.
A further data set relates to HL-60 cells. To be noted: for effect on staurosporine cytotoxicity (cell number): chimera at forty-eight hours.

With `Nc1ccn([C@@H]2O[C@H](CO)[C@@H](O)[C@@H]2O)c(=O)n1` [cytarabine, reference compound], the “effect on growth of CFU-GM and BFU-E colonies” value in the data set on CD34^+ cells is given as “drastically impaired”.
On to `CN[C@@H]1C[C@H]2O[C@@](C)([C@@H]1OC)n1c3ccccc3c3c4c(c5c6ccccc6n2c5c31)C(=O)NC4` [staurosporine, reference compound], for which the “effect on caspase activity / apoptosis” value with caspase 3/7 [1] is “induced apoptosis at the highest levels”.
In the case of “GM-CSF-Bcl-XL: chimeric protein: human GM-CSF fused via glycine-serine-threonine linker to full length human Bcl-XL, N-terminal His tag, expressed in E. coli (SEQ ID NO:1)”, in data set [2], the sensitivity to proteolysis result is “very sensitive to proteolysis”. The “inhibition of caspase 3/7 activity compared with GM-CSF at the same concentration” value in the data set on caspase 3/7 [3] is “more effective”. In addition, the “reduction of caspase activity” value in the data set on caspase 3/7 [3] (monocytes, 2.4 μM, cytotoxic drugs) was “more than 50%”. The “protection of PBMC from kinase inhibitors / apoptosis” value in data set [4] is recorded as “protected PBMC from both kinase inhibitors in a dose dependent manner”. In addition, in data set [4] (0.24 µM), the “increase in cell viability in the presence of AG409” value was 30% and the “increase in cell viability in the presence of staurosporine” value is on record as 50%. Also, in the data set on HL-60 cells (HL-60), the “time of maximum effect on proliferation” value came to 48 h. Moreover, the “proliferation activity higher than in cells treated with the same molar amount of GM-CSF” value in the data set on HL-60 cells (HL-60, 48 hours) was found to be 30%. Also, in the data set on HL-60 cells (HL-60, staurosporine), the “duration of protection from staurosporine” value is given as “at least seventy-two hours” and the “effect on staurosporine cytotoxicity (cell number)” value was “approximately the same number of cells as control cultures without staurosporine”. Moreover, the “reduction in cell death” value in the data set on HL-60 cells (HL-60, with staurosporine, seventy-two hours, versus control) was 30%. Moreover, the “cells that had died” value in the data set with HL-60 cells (HL-60, with staurosporine, seventy-two hours, 50% of control cells had died) is 20%. The “protection of colonies in the presence of cytarabine” value in the data set with CD34^+ cells (CD34+ cells, cytarabine) was “selectively protected the CFU-GM colonies relative to BFU-E”. Also, the “colonies under cytokine deprivation” value with CD34^+ cells (CD34+ cells, essential medium, no growth factor/cytokines) is recorded as “protected myeloid precursors from cytokine deprivation”. The “effect on number of colonies” value with CD34^+ cells (CD34+ cells, supplemented medium (SCF, erythropoietin, cytokines)) is listed as “two-fold”.
Take “GM-CSF: human granulocyte-macrophage colony-stimulating factor, a cytokine”: in data set [4], the “prosurvival activity in the presence of AG 490” value is recorded as “completely inhibited” and the “prosurvival activity in the presence of staurosporine” value was “largely inhibited”. For the same compound, the “effect on staurosporine cytotoxicity (cell number)” value in the data set with HL-60 cells (HL-60, staurosporine) is given as “not able to block the cytotoxic effect of staurosporine”. In the data set on caspase 3/7 [1], the “effect on caspase activity / apoptosis” value was “reduced”.
